Measurements reported in article PMC4015918, “Conjugation to a SMAC mimetic potentiates sigma-2 ligand induced tumor cell death in ovarian cancer” (Molecular Cancer, 2014).

Assays:
NIK = test: Western blot for NF-қB-inducing kinase (NIK); type: cell-based; conditions: SKOV3 cells, 10 μM, 4 hours
Method: (§1) Figure 4 SW IV-134 engages in SMAC-dependent pathway activation. (A) SKOV3 cells were treated with vehicle only (Ctrl.), SW43 (10 μM), and SW IV-134 (10 μM) for 4 hours and cell lysates were subjected to Western blot analysis using antibodies against XIAP, cIAP-1, cIAP-2, NF-қB and NIK. While XIAP seems unaffected under the conditions used, cIAP-1 and cIAP-2 proteins are readily undetectable shortly post treatment. SW IV-134 treatment also leads to accumulation of NF-қB inducing kinase (NIK) and activation of NF-қB pathway. (B) SKOV3 cells were treated with SW IV-134 at the indicated doses either alone or in the presence of proteasome inhibitor MG132 (20 μM) for 18 hours. […] Cell viability was determined as described in the experimental methods (p < 0.011, Student’s t-test).
(§2) Cells were lysed in radioimmunoprecipitation assay buffer [50 mM Tris, 150 mM sodium chloride, 1.0 mM EDTA, 1% Nonidet P40, and 0.25% SDS (pH 7.0)], supplemented with complete protease inhibitor cocktail (Roche, Mannheim) and phosphatase inhibitor cocktail 1 (Sigma Chemical Co., St. Louis, MO). The protein concentration was determined using a BioRad Dc protein assay kit (Bio-Rad Laboratories, Hercules, CA). Lysates containing 30 μg of protein were run on a 12% polyacrylamide gel and transferred to a PVDF membrane (Bio-Rad Laboratories, Hercules, CA). […]

SKOV3-Luc xenografts = test: Intraperitoneal SKOV3-Luc xenograft model of ovarian cancer (bioluminescence imaging, survival); type: in vivo, SCID mice; conditions: for Tumor response by bioluminescence signal intensity during treatment: start 7 days after inoculation, first week onward; for Median survival: daily i.p. for 3 weeks, 10 mice per group followed, vehicle 74 days
Description: Figure 6 SW IV-134 is a potent single-agent cancer drug in a peritoneal mouse xenograft model of ovarian cancer. (A) Female SCID mice were inoculated intraperitoneally with 5 × 10^6 SKOV3-Luc cells. Treatment was initiated with intraperitoneal injections of SW43, SW IV-134, or vehicle control 7 days after tumor cell inoculation, and continued for a total of 3 weeks. Mice were imaged once a week during the treatment period. Change in bioluminescence photon flux during treatment in each experimental arm (n = 15) was evaluated. Bioluminescent signals at each time point were averaged per treatment group (mean ± SEM). Significant differences were noted between vehicle vs. SW IV-134 and SW43 vs. SW IV-134 (p < 0.0097, one-way ANOVA). (B) Bioluminescent images at the end of the treatment (day 21) of one representative mouse per treatment arm (n = 15). […] (C) Kaplan-Meier survival analysis. At the end of the 3 week treatment, 5 mice from each experimental group were subjected to necropsy. The remaining 10 mice from each treatment group were followed until death to examine overall survival (p < 0.0108, Log-rank test).
All studies were performed in accordance with an animal protocol approved by the Washington University Institutional Animal Care Facility. Female severe combined immunodeficient mice (SCID) were purchased from Taconic Farms (Hudson, NY) at age 6 weeks. SKOV3-Luc cells (5 × 10^6) were inoculated intraperitoneally and mice were randomized 7 days later into one of the three treatment groups according to their baseline luciferase activity employing bioluminescence imaging (BLI). For bioluminescence imaging, mice were injected intraperitoneally with 150 μg/g D-luciferin (Biosynth, Naperville, IL) in PBS, anesthetized with 2.5% isoflurane, and imaged with a charge-coupled device (CCD) camera-based bioluminescence imaging system (IVIS 100; Caliper, Hopkinton, MA; exposure time 300 seconds, binning 16, field of view 12, f/stop 1, open filter).
In vivo experiments were conducted with 15 mice per treatment group. Treatment involved daily intraperitoneal injections with 90 μL of SW43 (7.5 mM stock), SW IV-134 (7.5 mM stock), or vehicle-only (25% cremophor in H2O) for 3 weeks. Tumor burden was monitored by bioluminescence imaging once a week during the treatment period. At the end of the treatment, 5 mice were randomly removed per treatment group and submitted for necropsy to the Washington University Department of Comparative Medicine. Blood samples were collected by intracardiac withdrawal prior to necropsy for chemistry and hematology work-up. In addition, various key organs were harvested for gross and histopathological examination. The remaining 10 mice from each treatment group were followed over time to examine overall survival. For survival studies, actual death or poor physical condition/large tumor size meeting criteria for euthanasia, constituted a death event.

[1] = system: caspase 3, caspase 8, and caspase 9; test: Western blot for precursors and activated forms of caspases 8, 9 and 3; type: cell-based; conditions: 10 μM, 24 hours, different ovarian cancer cell lines
Method: Figure 3 Treatment with SW IV-134 results in caspase-mediated cell death. (A) Cells were treated with vehicle only (Ctrl.), SW43 (10 μM), and SW IV-134 (10 μM) for 24 hours. Cell lysates were subjected to Western blot analysis, and probed with antibodies specific for the precursors and activated forms of caspases 8, 9, and 3. (B) SKOV3 cells were treated with SW IV-134 at indicated doses either alone or in the presence of the pan-caspase inhibitor Z-VAD-FMK (20 μM) for 18 hours. Cell viability was determined by CellTiter-Glo assays (p < 0.018, Student’s t-test).
as §2

XIAP = target: T1, XIAP (Homo sapiens, UniProt P98170); test: Western blot for XIAP levels; type: cell-based; conditions: SKOV3 cells, 10 μM, 4 hours
T1 construct: endogenous in cells; host or cells: SKOV3
Method: as §1, §2

[2] = daily i.p. 90 μL of 7.5 mM stock

T1 sequence (P98170 whole entry): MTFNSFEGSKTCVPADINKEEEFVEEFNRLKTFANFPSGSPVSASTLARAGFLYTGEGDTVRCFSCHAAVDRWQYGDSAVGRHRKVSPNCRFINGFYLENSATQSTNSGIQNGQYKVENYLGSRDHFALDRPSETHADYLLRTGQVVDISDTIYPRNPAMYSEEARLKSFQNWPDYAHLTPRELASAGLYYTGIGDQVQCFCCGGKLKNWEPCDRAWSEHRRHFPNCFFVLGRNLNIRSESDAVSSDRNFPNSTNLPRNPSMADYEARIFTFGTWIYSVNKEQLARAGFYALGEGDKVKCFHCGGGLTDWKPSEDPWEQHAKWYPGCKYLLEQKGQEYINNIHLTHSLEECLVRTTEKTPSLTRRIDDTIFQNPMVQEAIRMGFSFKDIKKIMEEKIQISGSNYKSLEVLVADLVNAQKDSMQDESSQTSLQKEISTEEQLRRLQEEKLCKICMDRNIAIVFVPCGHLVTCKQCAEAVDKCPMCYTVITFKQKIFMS

## COc1ccc(C)cc1NC(=O)OC1CC2CCCC(C1)N2CCCCCCCCCCN (stereo not shown) [SW43, reference compound]
NIK
  Accumulation of NIK: not seen
SKOV3-Luc xenografts; [2]
  Tumor response by bioluminescence signal intensity during treatment: signal intensity increased
SKOV3-Luc xenografts
  Median survival: 76.5 days

## COc1ccc(C)cc1NC(=O)OC1CC2CCCC(C1)N2CCCCCCCCCCN[C@@H](C)C(=O)N[C@H](C(=O)N1CCC[C@H]1C(=O)N[C@@H]1CCCc2ccccc21)C(C)(C)C (stereo partly shown) [SW IV-134]
[1]
  Activation of caspase 3, caspase 8, and caspase 9: induced
XIAP
  XIAP levels: without affecting the XIAP levels
NIK
  Accumulation of NIK: accumulation of NIK
SKOV3-Luc xenografts; daily i.p. 90 μL of 7.5 mM stock, day 21
  Bioluminescence signal intensity at the end of the 3 week treatment: significantly lower than both the SW43 and the vehicle-only treatment groups
SKOV3-Luc xenografts; [2]
  Tumor response by bioluminescence signal intensity during treatment: Tumor regression was evident by the end of the first week of treatment
SKOV3-Luc xenografts
  Median survival: 86.5 days
SKOV3-Luc xenografts; intraperitoneal metastatic model
  Extension of median survival: 10 days
